From patent US11034685B2, “Aminopyridine derivatives as TAM family kinase inhibitors” (SignalChem Lifesciences Corporation, priority 2013, dated 2021)

Key:
Format in all cases: biochemical
[1] = target: T1, Recombinant human Tyro3 (455-end) (Homo sapiens, UniProt Q06418); assay: Kinase enzymatic activity assay ([33P]-ATP phosphate transfer), Tyro3; conditions: inhibitory activity on Tyro3; class symbols
T1 construct: GST (N); made in house; host or cells: Sf9 insect cells (baculovirus)
T1 sequence (Q06418 455-890 limits assumed): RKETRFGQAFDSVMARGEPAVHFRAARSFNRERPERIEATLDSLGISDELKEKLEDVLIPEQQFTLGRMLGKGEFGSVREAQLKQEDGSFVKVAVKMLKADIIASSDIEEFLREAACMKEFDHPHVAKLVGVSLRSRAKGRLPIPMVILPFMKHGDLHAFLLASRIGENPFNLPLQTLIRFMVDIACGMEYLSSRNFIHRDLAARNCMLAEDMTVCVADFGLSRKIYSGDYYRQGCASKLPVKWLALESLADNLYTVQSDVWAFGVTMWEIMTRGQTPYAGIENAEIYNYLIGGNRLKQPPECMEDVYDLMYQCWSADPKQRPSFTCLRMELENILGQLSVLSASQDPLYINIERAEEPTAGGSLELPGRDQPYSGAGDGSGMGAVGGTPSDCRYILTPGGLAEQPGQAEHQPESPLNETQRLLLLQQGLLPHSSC
Outline: (§1)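 Kinases were N-terminal GST-tagged constructs expressed in Sf9 cells, with poly(Glu:Tyr 4:1) as substrate. Reactions ran in MOPS buffer pH 7.2 with MgCl2 and [33P]-ATP (250 μM cocktail stock) for 30 min at room temperature. Filter-bound radioactivity gave % inhibition, and IC50 was taken from serial dilutions.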

human Axl (473-end) = target: T2, human Axl (473-end) (Homo sapiens, UniProt P30530); assay: Kinase enzymatic activity assay ([33P]-ATP phosphate transfer), Axl; conditions: inhibitory activity on Axl; class symbols
T2 construct: GST (N); made in house; host or cells: Sf9 insect cells (baculovirus)
T2 sequence (P30530 473-894 limits assumed): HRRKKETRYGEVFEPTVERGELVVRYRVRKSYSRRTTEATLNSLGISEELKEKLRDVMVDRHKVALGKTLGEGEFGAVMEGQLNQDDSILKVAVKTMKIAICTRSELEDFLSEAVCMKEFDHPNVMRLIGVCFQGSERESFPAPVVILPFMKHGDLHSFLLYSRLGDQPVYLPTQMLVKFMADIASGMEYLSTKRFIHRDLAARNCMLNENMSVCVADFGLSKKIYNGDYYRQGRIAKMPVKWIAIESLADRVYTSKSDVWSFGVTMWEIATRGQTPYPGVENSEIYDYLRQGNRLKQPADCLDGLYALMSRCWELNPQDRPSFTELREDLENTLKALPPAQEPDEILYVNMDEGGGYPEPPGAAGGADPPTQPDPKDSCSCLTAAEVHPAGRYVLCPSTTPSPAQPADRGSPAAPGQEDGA
Outline: as §1

human Mer (578-872) = target: T3, human Mer (578-872) (Homo sapiens, UniProt Q12866); assay: Kinase enzymatic activity assay ([33P]-ATP phosphate transfer), Mer; conditions: inhibitory activity on Mer; class symbols
T3 construct: GST (N); made in house; host or cells: Sf9 insect cells (baculovirus)
T3 sequence (Q12866 578-872): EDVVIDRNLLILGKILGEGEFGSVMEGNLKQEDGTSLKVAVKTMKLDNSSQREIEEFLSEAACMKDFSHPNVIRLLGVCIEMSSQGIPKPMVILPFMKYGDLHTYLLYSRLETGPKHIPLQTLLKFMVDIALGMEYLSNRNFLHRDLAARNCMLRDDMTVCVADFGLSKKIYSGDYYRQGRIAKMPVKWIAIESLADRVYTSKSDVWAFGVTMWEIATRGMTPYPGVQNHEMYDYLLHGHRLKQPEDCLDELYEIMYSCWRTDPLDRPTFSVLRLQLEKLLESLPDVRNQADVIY
Outline: as §1

Row | SMILES | IC50 [1] | IC50 (human Axl (473-end)) | IC50 (human Mer (578-872))
1 | Nc1ncc(-c2cnn(C3CCN(C(=O)C4CC4)CC3)c2)cc1-c1nc(-c2ccccc2)no1 [(4-(4-(6-amino-5-(3-phenyl-1,2,4-oxadiazol-5-yl)pyridin-3-yl)-1H-pyrazol-1-yl)piperidin-1-yl)(cyclopropyl)methanone] | 1000 to 10000 nM | 1000 to 10000 nM | 1000 to 10000 nM
2 | Nc1ncc(-c2cnn(C3CCN(C(=O)c4ccccc4)CC3)c2)cc1-c1nc(-c2ccccc2)no1 [(4-(4-(6-amino-5-(3-phenyl-1,2,4-oxadiazol-5-yl)pyridin-3-yl)-1H-pyrazol-1-yl)piperidin-1-yl)(phenyl)methanone] | 1000 to 10000 nM | 1000 to 10000 nM | 1000 to 10000 nM
3 | Nc1ncc(-c2cnn(C3CCN(C(=O)C4CC4)CC3)c2)cc1-c1nnc(-c2c(Cl)cccc2Cl)o1 [(4-(4-(6-amino-5-(5-(2,6-dichlorophenyl)-1,3,4-oxadiazol-2-yl)pyridin-3-yl)-1H-pyrazol-1-yl)piperidin-1-yl)(cyclopropyl)methanone] | < 500 nM | < 500 nM | 1000 to 10000 nM
4 | Nc1ncc(-c2cnn(C3CCN(C(=O)c4ccccc4)CC3)c2)cc1-c1nnc(-c2c(Cl)cccc2Cl)o1 [(4-(4-(6-amino-5-(5-(2,6-dichlorophenyl)-1,3,4-oxadiazol-2-yl)pyridin-3-yl)-1H-pyrazol-1-yl)piperidin-1-yl)(phenyl)methanone] | < 500 nM | < 500 nM | < 500 nM
5 | Nc1ncc(-c2cnn(C3CCN(C(=O)c4ccc(F)cc4)CC3)c2)cc1-c1ncc(-c2cccc(Cl)c2)o1 [(4-(4-(6-amino-5-(5-(3-chlorophenyl)oxazol-2-yl)pyridin-3-yl)-1H-pyrazol-1-yl)piperidin-1-yl)(4-fluorophenyl)methanone] | < 500 nM | < 500 nM | 1000 to 10000 nM
6 | Nc1ncc(-c2cnn(C3CCN(C(=O)C4CC4)CC3)c2)cc1-c1ncc(-c2cccc(Cl)c2)o1 [(4-(4-(6-amino-5-(5-(3-chlorophenyl)oxazol-2-yl)pyridin-3-yl)-1H-pyrazol-1-yl)piperidin-1-yl)(cyclopropyl)methanone] | 500 to 1000 nM | < 500 nM | 1000 to 10000 nM
7 | Nc1ncc(-c2cnn(C3CCN(C(=O)C4CC4)CC3)c2)cc1-c1ncc(-c2ccc(Cl)cc2)o1 [(4-(4-(6-amino-5-(5-(4-chlorophenyl)oxazol-2-yl)pyridin-3-yl)-1H-pyrazol-1-yl)piperidin-1-yl)(cyclopropyl)methanone] | < 500 nM | < 500 nM | > 10000 nM
8 | Nc1ncc(-c2cnn(C3CCN(C(=O)c4ccccc4)CC3)c2)cc1-c1ncc(-c2ccc(Cl)cc2)o1 [(4-(4-(6-amino-5-(5-(4-chlorophenyl)oxazol-2-yl)pyridin-3-yl)-1H-pyrazol-1-yl)piperidin-1-yl)(phenyl)methanone] | < 500 nM | < 500 nM | 1000 to 10000 nM
9 | CC(C)(C)OC(=O)N1CCC(n2cc(-c3cnc(N)c(-c4nnc(-c5nc(C(F)(F)F)cs5)o4)c3)cn2)CC1 [tert-butyl 4-(4-(6-amino-5-(5-(4-(trifluoromethyl)-thiazol-2-yl)-1,3,4-oxadiazol-2-yl)pyridin-3-yl)-1H-pyrazol-1-yl)piperidine-1-carboxylate] | 1000 to 10000 nM | < 500 nM | > 10000 nM
10 | CC(C)(C)OC(=O)N1CCC(n2cc(-c3cnc(N)c(-c4ncc(-c5ccc(Cl)cc5)o4)c3)cn2)CC1 [tert-butyl 4-(4-(6-amino-5-(5-(4-chlorophenyl)oxazol-2-yl)pyridin-3-yl)-1H-pyrazol-1-yl)piperidine-1-carboxylate] | 1000 to 10000 nM | 500 to 1000 nM | 1000 to 10000 nM
11 | CC(C)(C)OC(=O)N1CCC(n2cc(-c3cnc(N)c(-c4nnc(-c5ccc(F)cc5)o4)c3)cn2)CC1 [tert-butyl 4-(4-(6-amino-5-(5-(4-fluorophenyl)-1,3,4-oxadiazol-2-yl)pyridin-3-yl)-1H-pyrazol-1-yl)piperidine-1-carboxylate] | 1000 to 10000 nM | 1000 to 10000 nM | 1000 to 10000 nM

The next lines start with the values.

Row | IC50 [1] | IC50 (human Axl (473-end)) | IC50 (human Mer (578-872)) | SMILES
12 | 1000 to 10000 nM | < 500 nM | 500 to 1000 nM | CC(C)(C)OC(=O)N1CCC(n2cc(-c3cnc(N)c(-c4nnc(CC5CC5)o4)c3)cn2)CC1 [tert-butyl 4-(4-(6-amino-5-(5-(cyclopropylmethyl)-1,3,4-oxadiazol-2-yl)pyridin-3-yl)-1H-pyrazol-1-yl)piperidine-1-carboxylate]
13 | 1000 to 10000 nM | < 500 nM | 1000 to 10000 nM | CC(C)(C)OC(=O)N1CCC(n2cc(-c3cnc(N)c(-c4nnc(-c5cnccn5)o4)c3)cn2)CC1 [tert-butyl 4-(4-(6-amino-5-(5-(pyrazin-2-yl)-1,3,4-oxadiazol-2-yl)pyridin-3-yl)-1H-pyrazol-1-yl)piperidine-1-carboxylate]
14 | 1000 to 10000 nM | < 500 nM | 1000 to 10000 nM | CC(C)(C)OC(=O)N1CCC(n2cc(-c3cnc(N)c(-c4nnc(-c5ccccn5)o4)c3)cn2)CC1 [tert-butyl 4-(4-(6-amino-5-(5-(pyridin-2-yl)-1,3,4-oxadiazol-2-yl)pyridin-3-yl)-1H-pyrazol-1-yl)piperidine-1-carboxylate]
15 | 1000 to 10000 nM | 500 to 1000 nM | 1000 to 10000 nM | CC(C)(C)OC(=O)N1CCC(n2cc(-c3cnc(N)c(-c4nnc(-c5cccnc5)o4)c3)cn2)CC1 [tert-butyl 4-(4-(6-amino-5-(5-(pyridin-3-yl)-1,3,4-oxadiazol-2-yl)pyridin-3-yl)-1H-pyrazol-1-yl)piperidine-1-carboxylate]
16 | 1000 to 10000 nM | 500 to 1000 nM | 1000 to 10000 nM | CC(C)(C)OC(=O)N1CCC(n2cc(-c3cnc(N)c(-c4nnc(-c5nccs5)o4)c3)cn2)CC1 [tert-butyl 4-(4-(6-amino-5-(5-(thiazol-2-yl)-1,3,4-oxadiazol-2-yl)pyridin-3-yl)-1H-pyrazol-1-yl)piperidine-1-carboxylate]
17 | 1000 to 10000 nM | < 500 nM | 1000 to 10000 nM | CC(C)(C)OC(=O)N1CCC(n2cc(-c3cnc(N)c(-c4nnc(Cc5ccccc5)o4)c3)cn2)CC1 [tert-butyl 4-(4-(6-amino-5-(5-benzyl-1,3,4-oxadiazol-2-yl)pyridin-3-yl)-1H-pyrazol-1-yl)piperidine-1-carboxylate]
18 | 1000 to 10000 nM | 1000 to 10000 nM | 1000 to 10000 nM | CC(C)(C)OC(=O)N1CCC(n2cc(-c3cnc(N)c(-c4nnc(-c5ccccc5)o4)c3)cn2)CC1 [tert-butyl 4-(4-(6-amino-5-(5-phenyl-1,3,4-oxadiazol-2-yl)pyridin-3-yl)-1H-pyrazol-1-yl)piperidine-1-carboxylate]
19 | 500 to 1000 nM | < 500 nM | 1000 to 10000 nM | CC(C)(C)OC(=O)N1CCC(n2cc(-c3cnc(N)c(-c4ncc(-c5ccccc5)o4)c3)cn2)CC1 [tert-butyl 4-(4-(6-amino-5-(5-phenyloxazol-2-yl)pyridin-3-yl)-1H-pyrazol-1-yl)piperidine-1-carboxylate]
